According to ChEMBL document CHEMBL1687833, “Genetic context and biochemical characterization of the IMP-18 metallo-beta-lactamase identified in a Pseudomonas aeruginosa isolate from the United States” (2011):
Converted amounts (≈) assume the structure as drawn.

Experiments:
[1] = test system: Escherichia coli; test: Antimicrobial activity against Escherichia coli DH5alpha carrying Pseudomonas aeruginosa strain PS 297 IMP-18-pLBII after 18 hrs by microdilution broth method; assay type: functional; conditions: DH5[alpha]
[2] = test system: Pseudomonas aeruginosa; test: Ratio of Kcat to Km for Pseudomonas aeruginosa strain PS 297 metallo-beta-lactamase IMP-1 expressed in Escherichia coli BL21(DE3) assessed as substrate hydrolysis using 100 uM nitrocefin
[3] = test system: Escherichia coli; test: Antimicrobial activity against Escherichia coli DH5alpha carrying Pseudomonas aeruginosa strain PS 297 IMP-1-pLBII after 18 hrs by microdilution broth method; assay type: functional; conditions: DH5[alpha]
[4] = test system: Pseudomonas aeruginosa; test: Ratio of Kcat to Km for Pseudomonas aeruginosa strain PS 297 metallo-beta-lactamase IMP18 expressed in Escherichia coli BL21(DE3) assessed as substrate hydrolysis using 100 uM nitrocefin
[5] = test system: Pseudomonas aeruginosa; test: Activity of Pseudomonas aeruginosa strain PS 297 metallo-beta-lactamase IMP-18 expressed in Escherichia coli BL21(DE3) assessed as substrate hydrolysis using 100 uM nitrocefin
[6] = test system: Pseudomonas aeruginosa; test: Activity of Pseudomonas aeruginosa strain PS 297 metallo-beta-lactamase IMP-1 expressed in Escherichia coli BL21(DE3) assessed as substrate hydrolysis using 100 uM nitrocefin
[7] = test system: Escherichia coli; test: Antimicrobial activity against Escherichia coli DH5alpha carrying empty pBC-SK after 18 hrs by microdilution broth method; assay type: functional; conditions: DH5[alpha]

In the case of `C[C@@H](O)[C@H]1C(=O)N2C(C(=O)O)=C(S[C@@H]3CN[C@H](C(=O)Nc4cccc(C(=O)O)c4)C3)[C@H](C)[C@H]12`, the MIC [1] is reported as 0.12 µg/mL (≈ 0.252 µM), the kcat/Km [2] is reported as 7.6 ×10⁵ /M/s and the MIC [3] is reported as 2 µg/mL (≈ 4.21 µM). It also gave a kcat/Km [4] of 1.2 ×10⁴ /M/s, a Km [5] of 2.6 µM and a kcat [5] of 0.03 s⁻¹. For the same molecule, the Km [6] was 21 µM, the kcat [6] was 16 s⁻¹ and the MIC [7] was ≤ 0.015 µg/mL.
For `CO/N=C(\C(=O)N[C@@H]1C(=O)N2C(C(=O)[O-])=C(C[N+]3(C)CCCC3)CS[C@H]12)c1csc(N)n1`, the kcat/Km [2] was 6.6 ×10⁵ /M/s, the MIC [3] was 4 µg/mL (≈ 8.32 µM) and the kcat/Km [4] was 4.4 ×10⁵ /M/s. It also gave a Km [5] of 0.8 µM, a kcat [5] of 0.35 s⁻¹ and a Km [6] of 11 µM. For the same molecule, the kcat [6] was 7 s⁻¹ and the MIC [7] was 0.25 µg/mL (≈ 0.52 µM).
Molecule `CC1(C)S[C@@H]2[C@H](NC(=O)Cc3ccccc3)C(=O)N2[C@H]1C(=O)O` has a kcat/Km [2] of 6.2 ×10⁵ /M/s, a kcat/Km [4] of 6.2 ×10⁵ /M/s and a Km [5] of 90 µM. It also gave a kcat [5] of 54 s⁻¹, a Km [6] of 520 µM and a kcat [6] of 320 s⁻¹.
`O=C(Cc1cccs1)N[C@@H]1C(=O)N2C(C(=O)O)=C(/C=C/c3ccc([N+](=O)[O-])cc3[N+](=O)[O-])CS[C@H]12` gave a kcat/Km [2] of 2.3 ×10⁶ /M/s, a kcat/Km [4] of 6.1 ×10⁶ /M/s and a Km [5] of 9 µM. It also gave a kcat [5] of 55 s⁻¹, a Km [6] of 27 µM and a kcat [6] of 63 s⁻¹.
`CC1(C)S[C@@H]2[C@H](NC(=O)[C@H](N)c3ccccc3)C(=O)N2[C@H]1C(=O)O` [AMPICILLIN] showed an MIC [1] of 64 µg/mL (≈ 183 µM), a kcat/Km [2] of 4.8 ×10⁶ /M/s and an MIC [3] of 256 µg/mL (≈ 733 µM). For the same molecule, the kcat/Km [4] was 6.3 ×10⁵ /M/s, the Km [5] was 103 µM and the kcat [5] was 65 s⁻¹. It also gave a Km [6] of 200 µM, a kcat [6] of 950 s⁻¹ and an MIC [7] of 4 µg/mL (≈ 11.4 µM).
With `C[C@H]1[C@H](NC(=O)/C(=N\OC(C)(C)C(=O)O)c2csc(N)n2)C(=O)N1S(=O)(=O)O` [AZTREONAM] the Km [5] was > 1000 µM, the kcat [5] was < 0.01 s⁻¹ and the Km [6] was > 1000 µM. The kcat [6] was < 0.01 s⁻¹.
Work on `CO/N=C(\C(=O)N[C@@H]1C(=O)N2C(C(=O)O)=C(COC(C)=O)CS[C@H]12)c1csc(N)n1` [CEFOTAXIME] yielded an MIC [1] of 32 µg/mL (≈ 70.3 µM), a kcat/Km [2] of 3.5 ×10⁵ /M/s and an MIC [3] of 8 µg/mL (≈ 17.6 µM). It also gave a kcat/Km [4] of 2.3 ×10⁵ /M/s, a Km [5] of 3 µM and a kcat [5] of 0.7 s⁻¹. It also gave a Km [6] of 4 µM, a kcat [6] of 1.3 s⁻¹ and an MIC [7] of 0.25 µg/mL (≈ 0.549 µM).
With `CO[C@@]1(NC(=O)C2SC(=C(C(N)=O)C(=O)O)S2)C(=O)N2C(C(=O)O)=C(CSc3nnnn3C)CS[C@@H]21` (stereo partly specified) [CEFOTETAN] the MIC [1] was 32 µg/mL (≈ 55.6 µM), the MIC [3] was > 32 µg/mL and the MIC [7] was 0.25 µg/mL (≈ 0.434 µM).
`CO[C@@]1(NC(=O)Cc2cccs2)C(=O)N2C(C(=O)O)=C(COC(N)=O)CS[C@@H]21` [CEFOXITIN] was tested, and the MIC [1] was 256 µg/mL (≈ 599 µM), the MIC [3] was > 256 µg/mL and the MIC [7] was 4 µg/mL (≈ 9.36 µM).
With `CC(C)(O/N=C(\C(=O)N[C@@H]1C(=O)N2C(C(=O)[O-])=C(C[n+]3ccccc3)CS[C@H]12)c1csc(N)n1)C(=O)O` [CEFTAZIDIME] the MIC [1] was 32 µg/mL (≈ 58.5 µM), the kcat/Km [2] was 1.8 ×10⁵ /M/s and the MIC [3] was 32 µg/mL (≈ 58.5 µM). The kcat/Km [4] was 7.7 ×10⁵ /M/s, the Km [5] was 1.3 µM and the kcat [5] was 1 s⁻¹. It also gave a Km [6] of 44 µM, a kcat [6] of 8 s⁻¹ and an MIC [7] of 0.25 µg/mL (≈ 0.457 µM).
Molecule `CO/N=C(\C(=O)N[C@@H]1C(=O)N2C(C(=O)O)=C(CSc3nc(=O)c(O)nn3C)CS[C@H]12)c1csc(N)n1` [CEFTRIAXONE] has an MIC [1] of 4 µg/mL (≈ 7.21 µM), an MIC [3] of 8 µg/mL (≈ 14.4 µM) and an MIC [7] of 0.25 µg/mL (≈ 0.451 µM).
With `CO/N=C(\C(=O)N[C@@H]1C(=O)N2C(C(=O)O)=C(COC(N)=O)CS[C@H]12)c1ccco1` [CEFUROXIME] the MIC [1] was 64 µg/mL (≈ 151 µM), the MIC [3] was 128 µg/mL (≈ 302 µM) and the kcat/Km [4] was 1.3 ×10⁵ /M/s. The Km [5] was 7 µM, the kcat [5] was 0.9 s⁻¹ and the MIC [7] was 4 µg/mL (≈ 9.43 µM).
For `CC(=O)OCC1=C(C(=O)O)N2C(=O)[C@@H](NC(=O)Cc3cccs3)[C@H]2SC1` [CEPHALOTHIN], the MIC [1] was 32 µg/mL (≈ 80.7 µM), the kcat/Km [2] was 2.4 ×10⁶ /M/s and the MIC [3] was 256 µg/mL (≈ 646 µM). The kcat/Km [4] was 4 ×10⁶ /M/s, the Km [5] was 0.1 µM and the kcat [5] was 0.4 s⁻¹. The Km [6] was 21 µM and the MIC [7] was 4 µg/mL (≈ 10.1 µM).
`C[C@@H](O)[C@H]1C(=O)N2C(C(=O)O)=C(SCCNC=N)C[C@H]12` [IMIPENEM ANHYDROUS] showed a kcat/Km [2] of 1.2 ×10⁶ /M/s, an MIC [3] of 2 µg/mL (≈ 6.68 µM) and a kcat/Km [4] of 2.4 ×10⁶ /M/s. The Km [5] was 7 µM, the kcat [5] was 17 s⁻¹ and the Km [6] was 39 µM. The kcat [6] was 46 s⁻¹.
Work on `C[C@@H](O)[C@H]1C(=O)N2C(C(=O)O)=C(S[C@@H]3CN[C@H](C(=O)N(C)C)C3)[C@H](C)[C@H]12` [MEROPENEM] yielded an MIC [1] of 0.06 µg/mL (≈ 0.156 µM), a kcat/Km [2] of 5 ×10⁵ /M/s and an MIC [3] of 2 µg/mL (≈ 5.22 µM). It also gave a kcat/Km [4] of 6 ×10³ /M/s, a Km [5] of 8.4 µM and a kcat [5] of 0.05 s⁻¹. The MIC [7] was ≤ 0.015 µg/mL.
For `CCN1CCN(C(=O)N[C@@H](C(=O)N[C@@H]2C(=O)N3[C@@H]2SC(C)(C)[C@@H]3C(=O)O)c2ccccc2)C(=O)C1=O` [PIPERACILLIN], the MIC [1] was 1 µg/mL (≈ 1.93 µM), the kcat/Km [2] was 7.2 ×10⁵ /M/s and the MIC [3] was 1 µg/mL (≈ 1.93 µM). For the same molecule, the kcat/Km [4] was 5.1 ×10⁴ /M/s, the Km [5] was > 200 µM and the kcat [5] was > 10 s⁻¹. The MIC [7] was 1 µg/mL (≈ 1.93 µM).
`CO[C@@]1(NC(=O)C(C(=O)O)c2ccsc2)C(=O)N2[C@@H](C(=O)O)C(C)(C)S[C@@H]21` (stereo partly specified) [TEMOCILLIN] was tested, and the MIC [1] was 16 µg/mL (≈ 38.6 µM), the kcat/Km [2] was < 100 M⁻¹ s⁻¹ and the MIC [3] was 32 µg/mL (≈ 77.2 µM). The kcat/Km [4] was 7.5 ×10² /M/s, the Km [5] was > 1000 µM and the kcat [5] was > 0.75 s⁻¹. The Km [6] was > 2000 µM and the MIC [7] was 16 µg/mL (≈ 38.6 µM).
With `CC1(C)S[C@@H]2[C@H](NC(=O)[C@H](C(=O)O)c3ccsc3)C(=O)N2[C@H]1C(=O)O` [TICARCILLIN] the MIC [1] was 256 µg/mL (≈ 666 µM), the kcat/Km [2] was 1.5 ×10³ /M/s and the MIC [3] was 512 µg/mL (≈ 1330 µM). The kcat/Km [4] was 1.5 ×10⁵ /M/s, the Km [5] was 180 µM and the kcat [5] was 30 s⁻¹. It also gave a Km [6] of 740 µM, a kcat [6] of 1.1 s⁻¹ and an MIC [7] of 8 µg/mL (≈ 20.8 µM).
